From ChEMBL document CHEMBL3875216, “Synthesis of antimicrobial glucosamides as bacterial quorum sensing mechanism inhibitors” (Bioorg Med Chem, 2017)

Legend:
[1] = tested on: Pseudomonas aeruginosa; test: Growth inhibition of Pseudomonas aeruginosa MH602 at 500 uM after 8 hrs relative to control; details: MH602, 8 h, read-out: GI
[2] = tested on: Escherichia coli; test: Growth inhibition of Escherichia coli MT102 at 2 mM after 24 hrs relative to control; details: MT102, 24 h, read-out: GI
[3] = tested on: Escherichia coli; test: Growth inhibition of Escherichia coli MT102 at 500 uM after 8 hrs relative to control; details: MT102, 8 h, read-out: GI
[4] = tested on: Pseudomonas aeruginosa; test: Growth inhibition of Pseudomonas aeruginosa MH602 at 1 mM after 24 hrs relative to control; details: MH602, 24 h, read-out: GI
[5] = tested on: Escherichia coli; test: Growth inhibition of Escherichia coli MT102 at 500 uM after 24 hrs relative to control; details: MT102, 24 h, read-out: GI
[6] = tested on: Escherichia coli; test: Growth inhibition of Escherichia coli MT102 at 1 mM after 24 hrs relative to control; details: MT102, 24 h, read-out: GI
[7] = tested on: Pseudomonas aeruginosa; test: Inhibition of LasR-dependent quorum sensing activity in Pseudomonas aeruginosa MH602 harboring GFP-fused […] LasB promoter assessed as inhibition of 3-oxo-dodecanoyl HSL-induced GFP expression at 2 mM measured after 24 hrs by fluorescence assay relative to control
[8] = tested on: Pseudomonas aeruginosa; test: Inhibition of LasR-dependent quorum sensing activity in Pseudomonas aeruginosa MH602 harboring GFP-fused […] LasB promoter assessed as inhibition of 3-oxo-dodecanoyl HSL-induced GFP expression at 1 mM measured after 24 hrs by fluorescence assay relative to control
[9] = tested on: Pseudomonas aeruginosa; test: Growth inhibition of Pseudomonas aeruginosa MH602 at 1 mM after 8 hrs relative to control; details: MH602, 8 h, read-out: GI
[10] = tested on: Pseudomonas aeruginosa; test: Growth inhibition of Pseudomonas aeruginosa MH602 at 2 mM after 8 hrs relative to control; details: MH602, 8 h, read-out: GI
[11] = tested on: Pseudomonas aeruginosa; test: Inhibition of LasR-dependent quorum sensing activity in Pseudomonas aeruginosa MH602 harboring GFP-fused […] LasB promoter assessed as inhibition of 3-oxo-dodecanoyl HSL-induced GFP expression at 500 uM measured after 8 hrs by fluorescence assay relative to control
[12] = tested on: Escherichia coli; test: Growth inhibition of Escherichia coli MT102 at 1 mM after 8 hrs relative to control; details: MT102, 8 h, read-out: GI
[13] = tested on: Escherichia coli; test: Inhibition of LuxR-dependent quorum sensing activity in Escherichia coli MT102 harboring pJBA132 assessed as inhibition of OHHL-induced GFP expression at 1 mM measured after 8 hrs by fluorescence assay relative to control
[14] = tested on: Pseudomonas aeruginosa; test: Inhibition of LasR-dependent quorum sensing activity in Pseudomonas aeruginosa MH602 harboring GFP-fused […] LasB promoter assessed as inhibition of 3-oxo-dodecanoyl HSL-induced GFP expression at 2 mM measured after 8 hrs by fluorescence assay relative to control
[15] = tested on: Pseudomonas aeruginosa; test: Growth inhibition of Pseudomonas aeruginosa PA14 at 2 mM after 24 hrs relative to control; details: 2000 µM
[16] = tested on: Pseudomonas aeruginosa PA14; test: Inhibition of quorum sensing-regulated pyocyanin production in Pseudomonas aeruginosa PA14 at 2 mM after 24 hrs relative to control
[17] = tested on: Escherichia coli; test: Growth inhibition of Escherichia coli MT102 at 2 mM after 8 hrs relative to control; details: MT102, 8 h, read-out: GI
[18] = tested on: Pseudomonas aeruginosa PA14; test: Inhibition of quorum sensing-regulated biofilm formation in Pseudomonas aeruginosa PA14 at 2 mM after overnight incubation by crystal violet staining based assay relative to control
[19] = tested on: Pseudomonas aeruginosa; test: Growth inhibition of Pseudomonas aeruginosa MH602 at 2 mM after 24 hrs relative to control; details: MH602, 24 h, read-out: GI
[20] = tested on: Escherichia coli; test: Inhibition of LuxR-dependent quorum sensing activity in Escherichia coli MT102 harboring pJBA132 assessed as inhibition of OHHL-induced GFP expression at 500 uM measured after 8 hrs by fluorescence assay relative to control
[21] = tested on: Escherichia coli; test: Inhibition of LuxR-dependent quorum sensing activity in Escherichia coli MT102 harboring pJBA132 assessed as inhibition of OHHL-induced GFP expression at 2 mM measured after 8 hrs by fluorescence assay relative to control
[22] = tested on: Pseudomonas aeruginosa; test: Inhibition of LasR-dependent quorum sensing activity in Pseudomonas aeruginosa MH602 harboring GFP-fused […] LasB promoter assessed as inhibition of 3-oxo-dodecanoyl HSL-induced GFP expression at 1 mM measured after 8 hrs by fluorescence assay relative to control
[23] = tested on: Escherichia coli; test: Inhibition of LuxR-dependent quorum sensing activity in Escherichia coli MT102 harboring pJBA132 assessed as inhibition of OHHL-induced GFP expression at 1 mM measured after 24 hrs by fluorescence assay relative to control
[24] = tested on: Pseudomonas aeruginosa; test: Inhibition of LasR-dependent quorum sensing activity in Pseudomonas aeruginosa MH602 harboring GFP-fused […] LasB promoter assessed as inhibition of 3-oxo-dodecanoyl HSL-induced GFP expression at 500 uM measured after 24 hrs by fluorescence assay relative to control
[25] = tested on: Escherichia coli; test: Inhibition of LuxR-dependent quorum sensing activity in Escherichia coli MT102 harboring pJBA132 assessed as inhibition of OHHL-induced GFP expression at 500 uM measured after 24 hrs by fluorescence assay relative to control
[26] = tested on: Escherichia coli; test: Inhibition of LuxR-dependent quorum sensing activity in Escherichia coli MT102 harboring pJBA132 assessed as inhibition of OHHL-induced GFP expression at 2 mM measured after 24 hrs by fluorescence assay relative to control
[27] = tested on: Pseudomonas aeruginosa; test: Growth inhibition of Pseudomonas aeruginosa MH602 at 500 uM after 24 hrs relative to control; details: MH602, 24 h, read-out: GI

| Structure (SMILES) | inhibition at 500 µM [1] [%] | inhibition at 2000 µM [2] [%] | inhibition at 500 µM [3] [%] | inhibition at 1000 µM [4] [%] | inhibition at 500 µM [5] [%] | inhibition at 1000 µM [6] [%] | inhibition [7] [%] | inhibition [8] [%] | inhibition at 1000 µM [9] [%] | inhibition at 2000 µM [10] [%] | inhibition [11] [%] | inhibition at 1000 µM [12] [%] | inhibition [13] [%] | growth inhibition (GI) [15] | inhibition [16] [%] | inhibition at 2000 µM [17] [%] | inhibition [18] [%] | inhibition at 2000 µM [19] [%] | inhibition [20] [%] | inhibition [21] [%] | also measured |
| --- | --- | --- | --- | --- | --- | --- | --- | --- | --- | --- | --- | --- | --- | --- | --- | --- | --- | --- | --- | --- | --- |
| CC(=O)OC[C@H]1O[C@@H](OC(C)=O)[C@H](NC(=O)Cc2ccc(Br)cc2)[C@@H](OC(C)=O)[C@@H]1OC(C)=O | 0 | 0 | 0 | 0 | 0 | 0 | 13.1 | 10 | 0 | 0 | 4.4 | 0 | 5.1 | Non-Toxic | 0.8 | 0 | 26.2 | 0 | 8.4 | 8.1 | inhibition [14]: 3.2%; inhibition [22]: 6.8%; inhibition [23]: 36.1%; inhibition [24]: 11.2%; inhibition [25]: 8.5%; inhibition [26]: 71.2%; inhibition at 500 µM [27]: 0% |
| CC(=O)OC[C@H]1O[C@@H](OC(C)=O)[C@H](NC(=O)Cc2ccc(Cl)cc2)[C@@H](OC(C)=O)[C@@H]1OC(C)=O | 0 | 0 | 0 | 0 | 0 | 0 | 16.7 | 14.8 | 0 | 0 | 1.4 | 0 | 4.2 | Non-Toxic | 9.3 | 0 | 17.8 | 0 | 5.2 | 3.7 | inhibition [23]: 8.5%; inhibition [24]: 13.3%; inhibition [25]: 1.3%; inhibition [26]: 16.5%; inhibition at 500 µM [27]: 3.4% |
